Marks after values point to notes of the source that are not given here.
Assays:
[1] = Fluorescence correlation spectroscopy (FCS) in aqueous solutions; assay type: physicochemical; conditions: aqueous solution, intensity range 0.1-2.0 MW/cm^2
Text: FIG. 10. FCS curves obtained from Rh110-CO2 (left plot) and compound 17 (right plot), at low (0.1 MW/cm^2) and high (2 MW/cm^2) excitation intensity (dots: experimental data; lines: best fits).
In combination with modern highly sensitive detection technologies recently developed, the observation of a single or a few molecules has become readily available. Several techniques based on these measurements [such as the fluorescence fluctuation spectroscopy and fluorescence correlation spectroscopy (FCS)] advantageously reveal molecular properties otherwise hidden by averaging the ensemble. A common requirement for experiments involving a few or single molecules is the use of fluorescent dyes with high photostability especially at high excitation intensities of >100 kW/cm^2. For biological applications the use of water as a solvent is almost imperative. Low solubility in water is often associated with a high bleaching ratio, or lower fluorescence quantum yield in aqueous medium compared with that in organic solvents. […]
The excitation intensity of 115 kW/cm^2 (a value normally used in routinely FCS measurements) and at an excitation intensity of about an order of magnitude higher (2 MW/cm^2) have been used. […] An increase in the fraction of molecules in the triplet state can also be detected. […]

[2] = Ground state depletion (GSDIM) pump-probe measurements in PVA matrix; assay type: physicochemical
Text: In this method, “off” and “on” switching of the fluorescence is achieved by transiently shelving the fluorophores into a meta-stable dark state. Upon the return of only a few isolated single molecules to the fluorescent singlet state, positions of these single light emitting spots can be imaged on a camera and localized with high precision. Upon repeating this procedure and acquiring many pictures, a super-resolution image can be reconstructed from the localized positions. A prerequisite of this method is that >70% of the ensemble of the applied fluorescent dyes can be shelved into a dark state at a time (to ensure the detection of isolated fluorescent spots at a time in a densely labeled sample) and that the fluorophores are bright enough, i.e., that they emit enough photons while being in the singlet on-state (to ensure high precision of localization).
Switching off of the laser leads to a recovery of the fluorescence ensemble within a characteristic recovery time of 150-450 ms (Table 5), indicating the shelving into a metastable dark state. The measurements were performed in a pump-probe mode, i.e., the residual level of fluorescence was probed with I<100 W/cm^2 for 0.5 ms after strong irradiation for 10 ms with the given laser intensity in Table 5.
Furthermore, recovery of the fluorescence can be accelerated by addition of UV light, which leads to an optically-induced depopulation of the dark states. Already 2-3 kW/cm^2 of 375 nm light recovers the fluorescence within an irradiation period of 0.5 ms. […] The accelerated recovery is important for samples with low density of labels, where the addition of UV light and thus acceleration of the return from a dark state helps to accelerate image acquisition. Photostabilities of the studied fluorescent dyes under the GSDIM conditions are different: 15-50 pump-probe cycles with a pump intensity of 14-110 kW/cm^2 bleach 30-95% of the whole ensemble.

[3] = Photoresistance in aqueous solutions irradiated with 488 nm light (3 W/cm^2); assay type: physicochemical; conditions: colored water solutions, several hours, 488 nm line of an Argon laser
Text: The compounds also display an outstanding photostability when irradiated for a prolonged time. […] The initial absorption at the irradiation wavelength was the same for all solutions. […] After two hours of irradiation, compounds 14 and 15 retain more than 50% of the initial emission intensity and compound 14a has about 90% of the initial signal left.
FIG. 2. Photoresistance of selected compounds (14-17, 14a, and 16a in Table 2), and some commercially available fluorophores with the similar spectral properties (Alexa Fluor 488®, Rhodamine Green®, Oregon Green 488®, and Fluorescein) in aqueous solutions irradiated with 488 nm light (3 W/cm^2)

[4] = Spectral properties of the fluorinated rhodamines (absorption, emission, quantum yield, lifetime); assay type: physicochemical
Description: Extinction coefficients (of the long wavelength maximum) which are lower than ca. 8×10^4 M^−1 cm^−1 indicate the presence of the closed non-fluorescent form.

[5] = test system: living mammalian cells (PtK2); assay: Membrane-permeation experiments in living cells, epifluorescence microscope; assay type: cell-based; conditions: 15 minutes
Description: FIG. 9. Membrane-permeation experiments of the presented dyes. Living mammalian cells (PtK2) were incubated for 15 minutes with a 50 μg dye/ml solution. The subcellular localization of the dye was imaged in an epifluorescence microscope. A: 46-H—CH2 CF3—H—H (16); B: 42-COOH (15); C: 23; D: 37-Me-Me-H (27); E: 42-H (14)-methylester; F: 33-H—H (18).
The most important prerequisite for fluorophores used in these labeling strategies is that sufficient amounts of it need to pass cellular membrane(s) to reach the target protein. In order to asses the permeability of the cell membrane to the fluorescent dyes described in the presented invention, living mammalian cells (PtK2) previously grown overnight on cover slips, were first subjected to either 500 μg dye/ml or 50 μg dye/ml in growth medium for 15 minutes. (The amount of dye used for labeling of SNAP-fusion proteins is below 5 μg dye/ml.) Then, the cells were washed with growth medium (without dye) for 15 minutes, and imaged using an epifluorescence microscope.

carboxy rhodamine 110 [Rh110-CO2, reference compound]
change of diffusion time with excitation intensity (bleaching) [1]: shortening of the apparent diffusion characteristic time

O=C(O)c1ccc2c(c1)C(=O)OC21c2ccc(NCC(F)(F)F)c(S(=O)(=O)O)c2Oc2c1ccc(NCC(F)(F)F)c2S(=O)(=O)O [Compound 17, 5′-Carboxy-4,5-disulfo-N,N′-bis(2,2,2-trifluoroethyl)-rhodamine]
λem ([2]; PVA matrix table): 524 nm
λex ([2]; PVA matrix table): 501 nm
Γfl, remaining fluorescence after 5 measurement cycles ([2]; PVA matrix, at one spot with the given power density): 40%
Rfl, t=0, residual fluorescence after the pump-pulse ([2]; PVA matrix, pump-pulse power density per dye 14-110 kW/cm^2): 25%
change in emission on irradiation [3]: without any significant changes in their emission
change of diffusion time with excitation intensity (bleaching) [1]: no significant change in the diffusion time
ABSORPTION λMAX ([4]; aqueous buffer at pH 7): 501 nm
EMISSION λMAX ([4]; aqueous buffer at pH 7): 524^a, 524^b nm
ΦFL ([4]; aqueous buffer at pH 7): 0.96
τFL ([4]; aqueous buffer at pH 7): 3.9 ns
ABSORPTION ε ([4]; methanol): 86000 M⁻¹ cm⁻¹
ABSORPTION λMAX ([4]; methanol): 511 nm
EMISSION λMAX ([4]; methanol): 524^a, 524^b nm
Structures stained in living cells ([5]; 50 μg dye/ml): Dim cytoplasmatic stain with dots
Structures stained in living cells ([5]; 500 μg dye/ml): Bright background staining visible.
